Earlier results on two compounds are cited in patent US5707620A (priority 1995, dated 1998).

In the series the test system is hemagglutinins. Particulars: cited from earlier work.

The structures appear in SMILES notation.

As for `N=C(N)NCCC[C@H](N)C(=O)O` [arginine], the “inhibition of activity of hemagglutinins” value is “inhibited by arginine”.

As to `NCCCC[C@H](N)C(=O)O` [lysine], the “inhibition of activity of hemagglutinins” value was “to a lesser extent, lysine”.
